Key:
Format in all cases: cell-based
STAT3 = test: STAT3-luc reporter cells, IL-6 stimulated luciferase
Description: Western blotting was performed as previously described (Battle T E, Arbiser J, & Frank D A (2005) The natural product honokiol induces caspase dependent apoptosis in B-cell chronic lymphocytic leukemia (B-CLL) cells. Blood 106(2):690-697). Antibodies to phospho-MAPK (9101), total MAPK (9102), phospho-Y705 STAT3 (9131), phospho-S6 (2215), total S6 (2217), phospho-4E-BP1 (9451), total 4E-BP1 (9644), total RSK (9355), phospho-S6K (9234, 85 used at 1:5000), total S6K (2708), phospho-eIF2α (9721, used at 1:1000), total eIF2α (5324), ATF4 (11815, used at 1:1000), PDGFRβ (3169), IGF1Rβ (9750), EGFR (2232), and HER2 (2242) were from Cell Signaling Technology. Phospho-RSK antibody was from R&D (AF889). Antibodies to total STAT3 (sc-482) and gp130 (sc-656, used at 1:1000) were from Santa Cruz Biotechnology. Phospho-S727 STAT3 antibody was described previously (229). REDD1 antibody was from Proteintech (10638-1-AP, used at 1:1000). Antibody recognizing full-length and cleaved ATF6 was from Abcam (ab122897, used at 1:1000). Antibodies to tubulin (T5168) and beta actin (A5316) were from Sigma. All antibodies were used at 1:10000 dilution for western blot unless otherwise noted. For immunoprecipitations, cells were lysed in 500 μl lysis buffer (0.5% NP-40, 150 mM NaCl, 50 mM Tris pH 7.5, with protease and phosphatase inhibitors freshly added at 1:100 [Pierce, PI78443]) on ice for 15 minutes, then centrifuged for 10 minutes at 14,000 RPM and 4° C. The supernatant was transferred to a new tube and incubated with 10 μl JAK2 antibody (Santa Cruz sc-278) or a mix of two TYK2 antibodies, 10 μl of each (Santa Cruz sc-5271 and Cell Signaling Technology 9312). Immunoprecipitation was performed overnight at 4° C. with rotation. The next day, 75 μl of protein A/G beads (Santa Cruz sc-2003) were washed twice in lysis buffer, then incubated with immunoprecipitates overnight as before. The next day, the beads were spun down (1 min. at 7,500 RPM and 4° C.) and washed 3 times with 650 μl lysis buffer for 10 minutes at 4° C. with rotation, then boiled in 50 μl sample buffer+10% β-mercaptoethanol. For Western blot, 20 μl were loaded per lane. For detection of phospho-tyrosine, a mixture of two pan-phospho-tyrosine antibodies (Cell Signaling Technology 9411 and 9416, 1:1000 of each) was used. Antibody to phospho-Y1007/1008 JAK2 was from Cell Signaling 86 Technology (3771, used at 1:1000). Antibody to phospho-Y570 JAK2 was from Millipore (09-241, used at 1:1000). Luminometric Assays Luciferase reporter cell lines were described previously (186). Firefly luciferase values were normalized by concurrent cell viability. Cell viability was measured as ATP-dependent luminescence by Cell Titer Glo (Promega).
To determine if atovaquone inhibits STAT3, it was tested in a cell-based reporter system of STAT3 transcriptional activity (Nelson E A, et al. (2008) Nifuroxazide inhibits survival of multiple myeloma cells by directly inhibiting STAT3. Blood 112(13):5095-5102). These cells lack basal STAT3 activation; upon IL-6 treatment, STAT3 becomes activated and drives transcription of a STAT3-dependent luciferase reporter gene. […] Activity of firefly luciferase was measured and normalized by cell viability (Cell Titer Glo). […]
STAT3-luc reporter cells were pre-treated with atovaquone, buparvaquone or TDBHN (concentration 10, 20, 30, or 40 μM) for 1 hour, then stimulated with IL-6 (10 ng/ml) for 5 hours. The activity of firefly luciferase was measured and normalized by cell viability (Cell Titer Glo).

gp130 = test: Flow cytometry of cell-surface gp130
Description: Annexin V/PI staining was performed using Annexin V:FITC Apoptosis Detection Kit I (BD Biosciences). Staining for cell cycle analysis was performed as previously described (267). Staining for cell-surface receptors was performed in 50 μl PBS+2% FBS with 2 μl antibody to IL6R (BioLegend #352803) or 5 μl antibody to gp130 (BD Biosciences #555757) for 20 minutes on ice in the dark. Cells were washed twice, then resuspended in 300 μl of the same buffer. Samples were analyzed on a BD FACSCanto II machine. Transfection and siRNA Cells were reverse-transfected using Lipofectamine RNAiMAX (Invitrogen); the culture medium was changed 24 hours later. Control siRNA (D-001210-02) and REDD1 siRNA (M-010855-01) were from Thermo Scientific Dharmacon.
Since atovaquone reduced gp130 expression at the cell surface, it was asked whether this effect was accompanied by reduced total gp130 in the cell. To address this question, a time course of atovaquone treatment was performed and total cellular gp130 was measured by Western blotting in U266 cells treated with atovaquone at 20 μM. […] Thus, it was surmised that atovaquone also rapidly downregulates cell-surface gp130, paralleling STAT3 inhibition and preceding the decrease in total gp130. […] Loss of cell-surface gp130 may be due to decreased entry into the plasma membrane or increased internalization. In either case, the decrease in total gp130 observed at longer time points is likely due to degradation of relatively unstable intracellular gp130.

[1] = tested on: PDGFR-β, EGFR, HER2, and IGF1R-β; test: Western blot of other receptors; conditions: MEF, MDA-MB-468, SKBR3; 25 μM, 6 or 12 hours
Description: Western blotting was performed as previously described (Battle T E, Arbiser J, & Frank D A (2005) The natural product honokiol induces caspase dependent apoptosis in B-cell chronic lymphocytic leukemia (B-CLL) cells. Blood 106(2):690-697). Antibodies to phospho-MAPK (9101), total MAPK (9102), phospho-Y705 STAT3 (9131), phospho-S6 (2215), total S6 (2217), phospho-4E-BP1 (9451), total 4E-BP1 (9644), total RSK (9355), phospho-S6K (9234, 85 used at 1:5000), total S6K (2708), phospho-eIF2α (9721, used at 1:1000), total eIF2α (5324), ATF4 (11815, used at 1:1000), PDGFRβ (3169), IGF1Rβ (9750), EGFR (2232), and HER2 (2242) were from Cell Signaling Technology. Phospho-RSK antibody was from R&D (AF889). Antibodies to total STAT3 (sc-482) and gp130 (sc-656, used at 1:1000) were from Santa Cruz Biotechnology. Phospho-S727 STAT3 antibody was described previously (229). REDD1 antibody was from Proteintech (10638-1-AP, used at 1:1000). Antibody recognizing full-length and cleaved ATF6 was from Abcam (ab122897, used at 1:1000). Antibodies to tubulin (T5168) and beta actin (A5316) were from Sigma. […] Cell viability was measured as ATP-dependent luminescence by Cell Titer Glo (Promega).
MEF, MDA-MB-468, and SKBR3 cells were treated with atovaquone (25 μM) for 6 or 12 hours, then analyzed by Western blot for expression of gp130 and various other receptors. […]

O=C1C(O)=C([C@H]2CC[C@H](c3ccc(Cl)cc3)CC2)C(=O)c2ccccc21 [atovaquone, trans-2-[4-(4-chlorophenyl)cyclohexyl]-3-hydroxy-1,4-naphthalenedione]
STAT-3 reporter gene expression (STAT3; 10, 20, 30, or 40 μM for 1 hour, then IL-6 (10 ng/ml) 5 hours, relative to controls): inhibited STAT-3 reporter gene expression
luciferase induction by IL-6 (STAT3 transcriptional activity) (STAT3; pre-treated 1 hour, then IL-6 (10 ng/ml) 5 hr, normalized by cell viability): dose-dependent inhibition of luciferase induction by IL-6
effect on STAT3 activity compared with STAT1, STAT5 and NF-κB (STAT3; reporter systems): much greater
cell surface gp130 in INA-6 and HEL cells (gp130; INA-6 20 μM 4 hours, HEL 25 μM 6 or 16 hours): induced downregulation of cell surface gp130
cell-surface expression of gp130, flow cytometric time course (gp130; U266, 20 μM): rapidly inhibits the cell-surface expression of gp130
cell-surface expression of gp130 (gp130; U266, 2.5 hours, atovaquone 20 μM, JAK inhibitor 1 1 μM, brefeldin A 3 μg/ml): substantially downregulated the cell-surface expression of gp130
levels of other receptors (PDGFR-β, EGFR, HER2, IGF1R-β) [1]: not affected

— patent US10130590B2, “Methods of treating cancer with atovaquone-related compounds” (DANA-FARBER CANCER INSTITUTE, INC., priority 2013, dated 2018)
